From paper PMC10216263, “Favorable Preclinical Pharmacological Profile of a Novel Antimalarial Pyrrolizidinylmethyl Derivative of 4-amino-7-chloroquinoline with Potent In Vitro and In Vivo Activities” (Biomolecules, 2023)
Like-named read-outs stand apart in the source and are kept apart here.

Legend:
[1] = test system: Pf-3D7 gametocytes >95% Stage I-III; test: Gametocyte luciferase assay (3D7elo1-pfs16-CBG99); format: cell-based, P. falciparum
Method: (§1) In vitro activity of MG3 against P falciparum sexual gametocyte stages […]
(§2) luminescent transgenic 3D7 strain (3D7elo1-pfs16-CBG99) at two different stages (I-III and V) using the […]
(§3) Briefly, 100 µL of culture medium were removed from each well to increase hematocrit; 70 µL of resuspended culture were transferred to a black 96-well plate; 70 µL of D-luciferin (1 mM in citrate buffer 0.1 M, pH 5.5) were added. Luminescence measurements were performed after 10 min with 500 ms integration time using a Synergy4-BioTek reader.
(§4) (1 picture or pasted object on this page, not shown here)

[2] = test system: Pf-3D7 gametocytes >95% Stage V; test: Gametocyte luciferase assay (3D7elo1-pfs16-CBG99); format: cell-based, P. falciparum; settings: Plasmodium falciparum, 3D7, read-out: Pf-3D7 gametocytes IC50 (nM), >95% Stage V
Method: as §1, §2, §3, §4

[3] = Blood to plasma partitioning; format: in vitro ADME; settings: male, whole blood, human blood, up to 30 min
Method: Plasma protein binding was performed via ultrafiltration (30,000 D cutoff, Amicon, Merck) with heparinized blood samples (male SD rats, Charles River Italy, and male Beagle dogs, Marshall Farms, Europe, Lyon, France) and fresh and frozen heparinized human blood samples collected from fasted healthy male subjects (at least two subjects for plasma samples), were supplied by AAI, Germany. MG3 final concentrations of 100, 300 and 1000 ng/mL were prepared using a 10 mg/mL stock solution while control samples at the same concentrations diluted in DPBS buffer (Dulbecco’s Phosphate Buffered Saline, Sigma-Aldrich) to evaluate the recovery. […] The percentage of bound drug (% Fbound) and of unbound drug (% Ffree) was determined using the following equations: % Fbound = [(Conc. Total–Conc. Free)/Conc. […] Total is the compound concentration determined in plasma and Conc. Free is the compound concentration determined in the ultrafiltrated samples. Results were expressed as % of binding and % of free fraction (single values and mean ± SD). […] Blood to plasma ratio was calculated as: Conc. in blood/Conc. in plasma; where, Conc. is the compound concentration determined in blood and in plasma at the same time of incubation.

in vivo = settings: CD1, mouse, po, 10 mg/kg, AUClast
[4] = test system: all the Pf strains tested; test: In vitro antimalarial activity, summary over all Pf strains tested; format: cell-based, P. falciparum; settings: for IC50: Plasmodium falciparum
Method: The strains D10 and 3D7 (CQ-Sensitive), and V1-S (CQ, pyrimethamine and cycloguanil resistant), K1 (CQ and PYR resistant), W2 and FCR3 (CQ-Resistant), TM90C2A (CQ, MQ, PYR and ATQ resistant) and IPC 5202 (MR4-1240, artemisinin-resistant, K13 mutation, and R539T) of Pf were cultured in vitro as described by Trager and Jensen with minor modifications. Briefly, parasites were maintained at 5% hematocrit (human type A-positive red blood cells) in RPMI 1640 (EuroClone, S.p.A. Milan, Italy) medium with the addition of 10% heat inactivate human serum or 1% AlbuMax (In vitrogen, Milan, Italy), 20 mM Hepes and 2 mM glutamine (Euroclone), at 37 °C in a standard gas mixture consisting of 1–3% O2, 5% CO2, and 92–94% N2.
Compounds were dissolved in either water or DMSO and then diluted with medium to achieve the required concentrations (final non-toxic DMSO concentration <1%). Asynchronous cultures of Pf with parasitaemia of 1–1.5% and 1% final hematocrit were aliquoted into 96-well flat-bottom microplates (Corning, Glendale, AZ, USA) with serial dilutions of test compounds and incubated for 72 h at 37 °C. Parasite growth was determined spectrophotometrically (OD650) by measuring the activity of the parasite lactate dehydrogenase (pLDH) according to a modified version of the method of Makler in control and drug-treated cultures.

[5] = Oral DRF and systemic exposure in NHP; format: in vivo, Cynomolgus monkeys; settings: for AUC(0-t) / Cmax / Tmax: po, 50 mg/kg/day; for half-life: plasma, Day 5, 50 mg/kg/day oral, read-out: t1/2, z (converted)
Method: Seven days oral DRF in rats and dog, and five days oral DRF in Non-Human Primates (NHP) were performed using Sprague Dawley rats (n = 3/time point) of both sexes, one male and one female dog Beagle (Marshall/Green Hill) and one male and one female monkeys/Cynomolgus (Noveprim Ltd., Mahebourg Mauritius,). MG3 was administered as oral suspension in 0.5% methocel in water (400 cP viscosity) at the following doses: 30, 60 and 120 mg/kg/day for 7 days (rat), 15 and 30 mg/kg/days for 7 days (dog) and 25, 50 and 75 mg/kg/day (NHP). No Observed Effects Levels (NOEL) were determined. Mortality, behavior, and general conditions were observed daily. Body weight was recorded pre-test, and on Days 1, 4 and 7. Food consumption was recorded from Days 1 to 4 and 4 to 7. Hematological and clinical chemistry examinations were performed on Day 8. All animals were sacrificed under anesthesia at the end of the treatment period on Day 8 of study. Post-mortem examinations included necropsy, collection, and histological examination performed of selected organs/tissues.

[6] = test system: P. falciparum V1-S (CQ-R); test: In vitro antimalarial activity, [3H]-hypoxanthine incorporation (LSHTM); format: cell-based; settings: Plasmodium falciparum; 72 h, [3H]-hypoxanthine incorporation, mean of 3 experiments; read-out: P. falciparum IC50 nM, V1-S (CQ-R)
[7] = both sexes, cynomolgus monkey, in vivo
[8] = female, cynomolgus monkey, in vivo
[9] = male, cynomolgus monkey, in vivo

## Clc1ccc2c(NCC34CCCN3CCC4)ccnc2c1 [MG3, 7-Chloro-N-((hexahydro-1H-pyrrolizin-7a-yl)methyl)quinolin-4-amine]
[1]; Plasmodium falciparum, 3D7, read-out: Pf-3D7 gametocytes IC50 (nM), >95% Stage I-III, luciferase readout, 3D7elo1-pfs16-CBG99
  IC50: 102 ± 22.1 nM
[1]; read-out: Pf-3D7 gametocytes IC50 (nM), >95% Stage I-III, luciferase readout, 3D7elo1-pfs16-CBG99
  IC50: ~100 nM
[2]
  IC50: 10700 ± 2790 nM
[3]
  blood plasma ratio at 300 ng/mL: ~1
In vivo
  AUC(0-t): 1.03 µg·h/mL
[4]; P. falciparum strains
  activity fold lower than that of ASN or DHA: 5–6 fold
[4]; read-out: mean IC50 against all the Pf strains tested
  IC50: 0.0209 µM
[4]; range over strains, read-out: IC50 range against all the Pf strains tested
  IC50: 0.012 to 0.03 µM
[5]; NHP, 50 mg/kg/day for five consecutive days
  tolerability: tolerated with limited clinical signs
[5]; NHP, 75 mg/kg/day oral (Phase I, incremental doses)
  toxicity finding: associated with mortality and severe CNS-related clinical signs
[5]; [7]
  AUC(0-t): 0.896 ± 0.132 µg·h/mL
  Cmax: 0.0701 ± 0.00368 µg/mL
  Tmax: 1.25 ± 1.06 h
[5]; both sexes, cynomolgus monkey, in vivo, NHP, 5-day oral, read-out: maximum tolerated dose (MTD)
  MTD at 5 days: 50 mg/kg/day
[5]; both sexes, cynomolgus monkey, Mean ± SD of male and female NHP
  half-life: 14.9 ± 10.3 h
[5]; cynomolgus monkey, Female NHP
  half-life: 22.2 h
[5]; cynomolgus monkey, Male NHP
  half-life: 7.66 h
[5]; [8]
  AUC(0-t): 0.989 µg·h/mL
  Cmax: 0.0727 µg/mL
  Tmax: 0.5 h
[5]; [9]
  AUC(0-t): 0.802 µg·h/mL
  Cmax: 0.0675 µg/mL
  Tmax: 2 h
[6]
  IC50: 25.7 nM
